Measured values published in paper PMC7357169, “Blinded, Multicenter Evaluation of Drug-induced Changes in Contractility Using Human-induced Pluripotent Stem Cell-derived Cardiomyocytes” (Toxicological Sciences, 2020).
pEC50, pIC50: −log10 of the molar value. Entries after “also recorded” stand apart in the source; their conditions may differ.

Key:
ERC18 hiPSC-CM EHTs [1] = experiment: Engineered heart tissue (EHT) contractility, ERC18 hiPSC-CMs; format: cell-based, human; settings: for changes in CA on the EHT platform: one range given for three NE drugs incorrectly predicted as PIs, EHT: ERC18 per Table 1
From the text: (§1) To generate EHTs, in-house hiPSC lines, R-PAT, and ERC18, were differentiated using 2D-monolayer- (R-PAT) or 3D-embryoid body- (ERC18) protocol and fabricated as recently described ([Breckwoldt et al., 2017]; [Mosqueira et al., 2018]). In brief, casting molds were generated in 24-well plates with 2% agarose (Invitrogen, 15510-019) and Polytetrafluorethylene (PTFE) spacers (EHT Technologies, C0002). PDMS racks (EHT Technologies, C0001) were placed in the 24-well plates so that pairs of PDMS posts reached into each agarose casting mold. A reconstitution mix was prepared consisting of: 1 × 10^6 hiPSC-CM; 81.9 µl cardiomyocyte medium; 10 µl Matrigel basement membrane matrix (BD 354234); 5.5 µl 2 × DMEM; 0.1 µl Y-27632 (10 mM; Biorbyt orb60104); 2.5 µl bovine fibrinogen (5 mg/ml; Sigma F4753). Reconstitution mix (97 µl) was mixed with prealiquoted 3 µl thrombin (100 U/ml; Biopur BP11-10-1104) and pipetted into the agarose casting mold. GCAMP6f-lentiviral particles (multiplicity of infection: 0.3, functional titer) were included in the EHT reconstitution mix for Ca^2+ transient analysis. EHTs started to beat coherently after 10–14 days and were analyzed for contraction and Ca^2+ transient at ≥ 20 days.
(§2) EHTs were transferred from culture medium into preequilibrated (37°C, 40% O2, 7% CO2), modified Tyrode’s solution (in mM, 120 NaCl; 22.6 NaHCO3; 5.4 KCl; 5 glucose; 1 MgCl2; 0.4 NaH2PO4; 0.6–1 CaCl2; 0.05 Na2EDTA; 25 HEPES) for R-PAT and into DMEM (Gibco 21068028; in mM, 110 NaCl; 44 NaHCO3; 5 KCl; 25 glucose; 0.8 MgSO4; 0.9 NaH2PO4, 0.6–1 CaCl2; 25 HEPES, and vitamins and amino acids) for ERC18 EHTs 40 min before analysis to equilibrate to the testing medium. After equilibration, the cumulative concentration response curve was started with baseline recording in preequilibrated medium with Ca^2+ concentration of 0.6–1 mM.
(§3) Contractility analysis was via automated video-optical contractility analysis was performed in 24-well cell culture plates (Nunc, 122475) ([Breckwoldt et al., 2017]). Video files of EHT contractions were analyzed by automated EHT figure recognition software (EHT Technologies, A0001). Top and bottom ends of EHT contour were identified and followed during the course of recording. Force was calculated based on shortening during contraction, elastic propensity, and geometry of PDMS posts.
(§4) Data were normalized to a pool of time-matched controls (contractility analysis, ERC18: n = 22 EHTs/7.0 experiments; R-PAT: 16 EHTs/5.0 experiments; combined contractility- and Ca^2+ transient-analysis: 21 EHTs/8.0 experiments) used for all contractility/combined contractility- and Ca^2+ transient-measurements. Data are plotted as relative change to the mean baseline, normalized to pool time control. Statistical significance was evaluated by GraphPad Software, 1-way ANOVA with Dunnett’s multiple comparisons test versus baseline.

heart = system: heart; design: method as in Refs column of Supplementary Table 1; settings: Refs of Supplementary Table 1; cited from earlier work
[2] = cited from earlier work; for FTPC: free therapeutic plasma concentration, Refs of Supplementary Table 1; for FPTC (free plasma therapeutic concentration): ref Supplementary Table 1
cardiac contractility = settings: cited from earlier work; for pEC50: read-out: Expected effect on contractility in isolated cardiomyocytes/heart muscles, EC50
R-PAT hiPSC-CMs [3] = experiment: CellOPTIQ (CO) contractility, R-PAT hiPSC-CM 2D monolayers; format: cell-based, human; settings: mean maximum measurable percentage change relative to baseline, at concentration of column Conc μM or cell superscript
Description: Manufacturer instructions were followed for the commercial hiPSC lines. […] The same plates were used for R-PAT hiPSC-CMs, which were seeded at 40 000 cells/well and maintained until days 20 and 21 of differentiation before use.
hiPSC-CMs in 96-well plate were transiently loaded in 50 µl/well of SFM containing FluoVolt (1:200 part B, 1:2000 part A; Life Tech, F10488) for 20 min at 37°C and 5% CO2. After incubation, the medium was replaced with 200 μl/well of SFM. Plates were then incubated at 37°C and 5% CO2 for 15 min before recording, which were made using a ×40 (NAO.6) objective at 10 KHz. […] Baselines and drug addition were as described for the TTM system. Electrophysiology data were analyzed using CellOPTIQ proprietary software of Clyde Biosciences and were normalized to a maximum amplitude of 1 and minimum of 0 to standardize height for comparison of traces created in OriginPro (OriginLab version 7.5). Contractility data were analyzed based on pixel displacement using an ImageJ plug-in. This plug-in uses a sum of absolute differences algorithm.

R-PAT hiPSC-CM EHTs = experiment: Engineered heart tissue (EHT) contractility, R-PAT hiPSC-CMs; format: cell-based, human
From the text: as §1, §2, §3, §4

ERC18 hiPSC-CM EHTs [4] = settings: EHT:ERC
Description: For long-term contractility analysis of sunitinib, hiPSC-CM EHTs were equilibrated to regular cell culture medium without serum (DMEM, Biochrom F0415; penicillin/streptomycin 1% [volume/volume], Gibco 15140; aprotinin 5 µM, Sigma-Aldrich A1153; insulin 1.7 µM, Sigma-Aldrich I9278; glutamine 2000 µM, Gibco 25030-081; triiodothyronine 0.77 nM, European Commission-Joint Research Center IRMM-469; hydrocortisone 137 µM: Sigma-Aldrich H0888). Medium change, drug addition and video-optical contractility analysis was performed daily and contraction data was normalized to time control.
The EHT:ERC platform-cell combination was exposed to 100 µM doxorubicin (C) or 1 µM sunitinib (D) for up to 17.5 hr (C) or up to 8 days (D). CA is shown normalized to time controls.

hiPSC-CMs = experiment: CellOPTIQ voltage (FluoVolt) analysis, hiPSC-CMs; format: cell-based, human
Description: hiPSC-CMs in 96-well plate were transiently loaded in 50 µl/well of SFM containing FluoVolt (1:200 part B, 1:2000 part A; Life Tech, F10488) for 20 min at 37°C and 5% CO2. After incubation, the medium was replaced with 200 μl/well of SFM. Plates were then incubated at 37°C and 5% CO2 for 15 min before recording, which were made using a ×40 (NAO.6) objective at 10 KHz. […] Electrophysiology data were analyzed using CellOPTIQ proprietary software of Clyde Biosciences and were normalized to a maximum amplitude of 1 and minimum of 0 to standardize height for comparison of traces created in OriginPro (OriginLab version 7.5). Contractility data were analyzed based on pixel displacement using an ImageJ plug-in. […]
Action potential duration (APD30, APD90) and triangulation (APD90–APD30) were calculated from voltage waveforms to determine whether electrophysiology was altered, including the appearance of arrhythmias. For Ca^2+ handling, amplitude, time to peak, and decay time were assessed, whereas similar parameters (contraction amplitude [CA], contraction time [CT], and relaxation time [RT]) were derived for contraction (Supplementary Figure 2). […]

R-PAT hiPSC-CMs [5] = experiment: CO:R-PAT contractility after 24 h exposure
From the text: We asked whether longer term exposure would affect contractility (Supplementary Figure 7).
Prolonged exposure detects NIs in 2D and 3D cultures of hiPSC-CMs. […] CA is shown normalized to time controls.

[6] = isolated cardiomyocytes/heart muscles, Refs of Supplementary Table 1
[7] = EHT: ERC18, mean maximum measurable percentage change relative to baseline, at concentration of column Conc μM or cell superscript
[8] = EHT: R-PAT, mean maximum measurable percentage change relative to baseline, at concentration of column Conc μM or cell superscript

Compound	changes in CA on the EHT platform (ERC18 hiPSC-CM EHTs [1])	Expected cardiac effects in vivo (heart)	FTPC [2] [µM]	FPTC (free plasma therapeutic concentration) [2] [µM]	Expected effect on contractility in isolated cardiomyocytes/heart muscles (cardiac contractility; [6])	pEC50 (cardiac contractility; [6])	electrophysiology after 30 min exposure (hiPSC-CMs)	effect of exposure to the highest concentration for 24 h (R-PAT hiPSC-CMs [5])	other results
CC[C@H](C)C(=O)O[C@H]1C[C@H](O)C=C2C=C[C@H](C)[C@H](CC[C@@H](O)C[C@@H](O)CC(=O)O)[C@H]21 [Pravastatin]	19%–33	None	0.018	0.018	None	–	–	–	–
C[C@H](N[C@@H](CCc1ccccc1)C(=O)O)C(=O)N1CCC[C@H]1C(=O)O [Enalaprilat]	–	None	0.12	0.12	None	–	–	–	CA (contraction amplitude) (ERC18 hiPSC-CM EHTs [1]; [7]): +2 ^10 µM %; CT (contraction time) (ERC18 hiPSC-CM EHTs [1]; [7]): −3%; RT (relaxation time) (ERC18 hiPSC-CM EHTs [1]; [7]): −4%; CA (contraction amplitude) (R-PAT hiPSC-CMs [3]): +54%; CT (contraction time) (R-PAT hiPSC-CMs [3]): +20 ^10 µM %; RT (relaxation time) (R-PAT hiPSC-CMs [3]): +34%; CA (contraction amplitude) (R-PAT hiPSC-CM EHTs; [8]): +33%; CT (contraction time) (R-PAT hiPSC-CM EHTs; [8]): +5 ^1 µM %; RT (relaxation time) (R-PAT hiPSC-CM EHTs; [8]): −14%; changes in CA on the EHT platform (R-PAT hiPSC-CM EHTs; one range given for three NE drugs incorrectly predicted as PIs, EHT: R-PAT per Table 1): 19%–33; inotropic effect via bradykinin B1 receptor activation (cardiac contractility; ACE inhibitors, ref Ignjatovic et al., 2002): positive inotropic effect
CCCCNC(=O)NS(=O)(=O)c1ccc(C)cc1 [Tolbutamide]	19%–33	None or PI (dogs, men)	–	–	None (canine CM) or small PI (rabbit atria, rat heart)	~4.52	–	–	–
COc1cccc2c1C(=O)c1c(O)c3c(c(O)c1C2=O)C[C@@](O)(C(=O)CO)C[C@@H]3O[C@H]1C[C@H](N)[C@H](O)[C@H](C)O1 [Doxorubicin]	–	NI, time course of cardiotox dose-dependent	1 to 2	1 to 2	PI+NCl and reduced post-rest potentiation at 30 µM (GP), but strong NI at 1000 µM (GP, rat); rate-dependent	–	altered electrophysiology; also recorded: changes in electrophysiology	loss of contraction and cell death	time after which EHT contraction ceased (ERC18 hiPSC-CM EHTs [4]; 100 µM doxorubicin): 17.5 h; inotropy trend with 24 h treatment (R-PAT hiPSC-CMs [5]; 1 to 30 µM, increased CA, decreased CT): trend of positive inotropy; reported inotropic effects (cardiac contractility; ref Kim et al., 1980, Vanboxtel et al., 1978, Wang and Korth, 1995): transient positive inotropy is followed by robust negative inotropy at higher concentrations
COC(=O)N1CCN(Cc2cccc(NC(=O)Nc3ccc(C)nc3)c2F)CC1 [Omecamtiv mecarbil]	–	PI, prolonged syst. ejection time, small decrease in heart rate	0.05 to 0.42	–	PI, NCl, NL, diastolic shortening (dog myocytes)	6.00	–	–	increased CT (R-PAT hiPSC-CM EHTs; hiPSC-CMs configured as 3D EHTs, blinded phase, without convincing evidence for increased CA): approximately +40%
CCN(CC)CCNC(=O)c1c(C)[nH]c(/C=C2\C(=O)Nc3ccc(F)cc32)c1C [Sunitinib]	–	NI, NC at high doses, chronic cardiotox	0.003	0.003	–	–	altered electrophysiology	loss of contraction and cell death	CA over a 7-day period (ERC18 hiPSC-CM EHTs [4]; 1 µM sunitinib, normalized to time controls): decline in CA; pIC50 (cardiac contractility; negative inotropy, isolated cardiomyocytes/heart muscles, Refs of Supplementary Table 1, read-out: Expected effect on contractility in isolated cardiomyocytes/heart muscles, IC50): 5.00
